Source: ChEMBL document CHEMBL1201862, “PubChem BioAssay data set” (2004)
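Test compounds were applied to cells in 96-well plates for 48 hours at 5 doses. GI50 is the concentration that inhibits growth by half.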 Calls of active or inactive are those of the source. No stated cut-off is given here; in the data, active = GI50 up to about 1.1 µM and inactive = higher.

Legend:
Experiment in all cases: inhibition of tumour cell growth, NCI panel, 48 h
UACC-257 = tested on: UACC-257
MCF7 = tested on: MCF7
SF-268 = tested on: SF-268
SR = tested on: SR
IGROV-1 = tested on: IGROV-1
SF-539 = tested on: SF-539
T47D = tested on: T47D
SK-MEL-2 = tested on: SK-MEL-2
M14 = tested on: M14
SK-OV-3 = tested on: SK-OV-3
CCRF-CEM = tested on: CCRF-CEM
U-251 = tested on: U-251
OVCAR-8 = tested on: OVCAR-8
SNB-75 = tested on: SNB-75
OVCAR-4 = tested on: OVCAR-4
SNB-19 = tested on: SNB-19
PC-3 = tested on: PC-3
HOP-62 = tested on: HOP-62
MDA-N = tested on: MDA-N
786-0 = tested on: 786-0
SK-MEL-28 = tested on: SK-MEL-28
TK-10 = tested on: TK-10
EKVX = tested on: EKVX
MDA-MB-231 = tested on: MDA-MB-231
Hs-578T = tested on: Hs-578T
NCI/ADR-RES = tested on: NCI/ADR-RES
NCI-H460 = tested on: NCI-H460
HCT-15 = tested on: HCT-15
RPMI-8226 = tested on: RPMI-8226
Malme-3M = tested on: Malme-3M
HOP-92 = tested on: HOP-92
MDA-MB-435 = tested on: MDA-MB-435
DU-145 = tested on: DU-145
COLO 205 = tested on: COLO 205
A549 = tested on: A549
NCI-H226 = tested on: NCI-H226
UO-31 = tested on: UO-31
HT-29 = tested on: HT-29
ACHN = tested on: ACHN
NCI-H522 = tested on: NCI-H522
HCC 2998 = tested on: HCC 2998
SK-MEL-5 = tested on: SK-MEL-5
NCI-H23 = tested on: NCI-H23
A498 = tested on: A498
LOX IMVI = tested on: LOX IMVI
SW-620 = tested on: SW-620
RXF 393 = tested on: RXF 393
BT-549 = tested on: BT-549
OVCAR-5 = tested on: OVCAR-5
HCT-116 = tested on: HCT-116
SN12C = tested on: SN12C
KM12 = tested on: KM12
K562 = tested on: K562
UACC-62 = tested on: UACC-62
CAKI-1 = tested on: CAKI-1
SF-295 = tested on: SF-295
OVCAR-3 = tested on: OVCAR-3
MOLT-4 = tested on: MOLT-4
HL-60 = tested on: HL-60

SMILES: CN1CCN(CCCCNc2cc3c4ccccc4c(NCCCCN4CCN(C)CC4)cc3c3ccccc23)CC1
- GI50 (UACC-257): 4.79 µM (inactive)
- GI50 (MCF7): 1.34 µM (inactive)
- GI50 (SF-268): 1.9 µM (inactive)
- GI50 (SR): 0.443 µM (active)
- GI50 (IGROV-1): 1.93 µM (inactive)
- GI50 (SF-539): 1.94 µM (inactive)
- GI50 (T47D): 18.6 µM (inactive)
- GI50 (SK-MEL-2): 5.05 µM (inactive)
- GI50 (M14): 0.895 µM (active)
- GI50 (SK-OV-3): 14.6 µM (inactive)
- GI50 (CCRF-CEM): 0.703 µM (active)
- GI50 (U-251): 1.68 µM (inactive)
- GI50 (OVCAR-8): 1.88 µM (inactive)
- GI50 (SNB-75): 3.38 µM (inactive)
- GI50 (OVCAR-4): 1.36 µM (inactive)
- GI50 (SNB-19): 4.49 µM (inactive)
- GI50 (PC-3): 3.31 µM (inactive)
- GI50 (HOP-62): 3.59 µM (inactive)
- GI50 (MDA-N): 0.317 µM (active)
- GI50 (786-0): 1.63 µM (inactive)
- GI50 (SK-MEL-28): 7.67 µM (inactive)
- GI50 (TK-10): 6.95 µM (inactive)
- GI50 (EKVX): 7.43 µM (inactive)
- GI50 (MDA-MB-231): 1.62 µM (inactive)
- GI50 (Hs-578T): 2.38 µM (inactive)
- GI50 (NCI/ADR-RES): 2.47 µM (inactive)
- GI50 (NCI-H460): 1.53 µM (inactive)
- GI50 (HCT-15): 1.34 µM
- GI50 (RPMI-8226): 1.38 µM (inactive)
- GI50 (Malme-3M): 2.15 µM (inactive)
- GI50 (HOP-92): 6.61 µM (inactive)
- GI50 (MDA-MB-435): 0.184 µM (active)
- GI50 (DU-145): 1.67 µM (inactive)
- GI50 (COLO 205): 2.36 µM (inactive)
- GI50 (A549): 1.37 µM (inactive)
- GI50 (NCI-H226): 13.4 µM (inactive)
- GI50 (UO-31): 2.69 µM (inactive)
- GI50 (HT-29): 1.95 µM (inactive)
- GI50 (ACHN): 4.06 µM (inactive)
- GI50 (NCI-H522): 1.93 µM (inactive)
- GI50 (HCC 2998): 1.81 µM (inactive)
- GI50 (SK-MEL-5): 1.44 µM (inactive)
- GI50 (NCI-H23): 2.09 µM (inactive)
- GI50 (A498): 12 µM (inactive)
- GI50 (LOX IMVI): 0.962 µM (active)
- GI50 (SW-620): 1.43 µM (inactive)
- GI50 (RXF 393): 1.41 µM (inactive)
- GI50 (BT-549): 5.89 µM (inactive)
- GI50 (OVCAR-5): 5.56 µM (inactive)
- GI50 (HCT-116): 0.604 µM (active)
- GI50 (SN12C): 2.61 µM (inactive)
- GI50 (KM12): 1.55 µM (inactive)
- GI50 (K562): 1.57 µM (inactive)
- GI50 (UACC-62): 2.28 µM (inactive)
- GI50 (CAKI-1): 9.77 µM (inactive)
- GI50 (SF-295): 1.78 µM (inactive)
- GI50 (OVCAR-3): 2.98 µM (inactive)
- GI50 (MOLT-4): 0.41 µM (active)
- GI50 (HL-60): 4.03 µM (inactive)

SMILES: N=C(N)SCCCN
- GI50 (UACC-257): 5.4 µM (inactive)
- GI50 (MCF7): 5.5 µM (inactive)
- GI50 (SF-268): 5.3 µM (inactive)
- GI50 (SR): 3.3 µM (inactive)
- GI50 (IGROV-1): 3.83 µM (inactive)
- GI50 (SF-539): 5.81 µM (inactive)
- GI50 (T47D): 32.2 µM (inactive)
- GI50 (SK-MEL-2): 13.2 µM (inactive)
- GI50 (M14): 3.52 µM (inactive)
- GI50 (SK-OV-3): 22.4 µM (inactive)
- GI50 (CCRF-CEM): 1.39 µM (inactive)
- GI50 (U-251): 6.11 µM (inactive)
- GI50 (OVCAR-8): 3.87 µM (inactive)
- GI50 (SNB-75): 33.7 µM (inactive)
- GI50 (OVCAR-4): 6.5 µM (inactive)
- GI50 (SNB-19): 20.7 µM (inactive)
- GI50 (PC-3): 15.6 µM (inactive)
- GI50 (HOP-62): 12.1 µM (inactive)
- GI50 (MDA-N): 3.95 µM (inactive)
- GI50 (786-0): 4.71 µM (inactive)
- GI50 (SK-MEL-28): 28.2 µM (inactive)
- GI50 (TK-10): 3.65 µM (inactive)
- GI50 (EKVX): 35.4 µM (inactive)
- GI50 (MDA-MB-231): 3.3 µM (inactive)
- GI50 (Hs-578T): 5.61 µM (inactive)
- GI50 (NCI/ADR-RES): 5.02 µM (inactive)
- GI50 (NCI-H460): 4.13 µM (inactive)
- GI50 (HCT-15): 5.02 µM
- GI50 (RPMI-8226): 18.5 µM (inactive)
- GI50 (Malme-3M): 8.77 µM (inactive)
- GI50 (HOP-92): 4.94 µM (inactive)
- GI50 (MDA-MB-435): 3.18 µM (inactive)
- GI50 (DU-145): 20.4 µM (inactive)
- GI50 (COLO 205): 13.7 µM (inactive)
- GI50 (A549): 37.7 µM (inactive)
- GI50 (NCI-H226): 18.3 µM (inactive)
- GI50 (UO-31): 17.7 µM (inactive)
- GI50 (HT-29): 16 µM (inactive)
- GI50 (ACHN): 4.29 µM (inactive)
- GI50 (NCI-H522): 5.41 µM (inactive)
- GI50 (HCC 2998): 0.0455 µM (active)
- GI50 (SK-MEL-5): 15 µM (inactive)
- GI50 (NCI-H23): 6.1 µM (inactive)
- GI50 (A498): 32.1 µM (inactive)
- GI50 (LOX IMVI): 3.3 µM (inactive)
- GI50 (SW-620): 26.4 µM (inactive)
- GI50 (RXF 393): 4.29 µM (inactive)
- GI50 (BT-549): 4.06 µM (inactive)
- GI50 (OVCAR-5): 32.6 µM (inactive)
- GI50 (HCT-116): 3.86 µM (inactive)
- GI50 (SN12C): 25.2 µM (inactive)
- GI50 (KM12): 24.2 µM (inactive)
- GI50 (K562): 6.03 µM (inactive)
- GI50 (UACC-62): 17.6 µM (inactive)
- GI50 (CAKI-1): 4.32 µM (inactive)
- GI50 (SF-295): 21.6 µM (inactive)
- GI50 (OVCAR-3): 9.57 µM (inactive)
- GI50 (MOLT-4): 0.368 µM (active)
- GI50 (HL-60): 1.87 µM (inactive)
